Assay results as given in ChEMBL document CHEMBL3885861, “Open TG-GATES”.

Organism: Rattus norvegicus
Experiment: Open TG-GATES - Regimen: Daily Repeat
Type: toxicity, organism-based, Sprague-Dawley
Design: regimen Daily Repeat, gender Male, age 6 weeks
Settings: in vivo, po, 300 mg/kg, route gavage, dose level High; for Bas / Eos / Fbg / Hb / Ht / Lym / MCH / MCV / Mono / Neu / PT / Plat / RBC / Ret / WBC / APTT: tissue Blood; for KIDNEY_L / KIDNEY_R / KIDNEY_TOTAL: tissue Kidney; for LIVER: tissue Liver; for ALP / ALT / AST / BUN / CRE / Ca / Cl / DBIL / GLC / IP / K / LDH / Na / PL / RALB / TBIL / TC / TP / gamma-GTP: tissue Plasma

NC(=O)N1c2ccccc2C=Cc2ccccc21 [CARBAMAZEPINE]
Bas (72 h, time 3 day): 0%
Eos (72 h, time 3 day): 1.2%
Fbg (72 h, time 3 day): 203 mg/dL
Hb (72 h, time 3 day): 13.7 g/dL
Ht (72 h, time 3 day): 40.1%
Lym (72 h, time 3 day): 83.6%
MCH (72 h, time 3 day): 20.9 pg
MCV (72 h, time 3 day): 61 fL
Mono (72 h, time 3 day): 2.6%
Neu (72 h, time 3 day): 11.4%
PT (72 h, time 3 day): 11.8 s
Plat (72 h, time 3 day): 131.3 x10_4/uL
RBC (72 h, time 3 day): 657.8 x10_4/ul
Ret (72 h, time 3 day): 3.6%
WBC (72 h, time 3 day): 92.4 x10_2/uL
KIDNEY_L (72 h, time 3 day): 1.1 g
KIDNEY_R (72 h, time 3 day): 1 g
KIDNEY_TOTAL (72 h, time 3 day): 2.1 g
LIVER (72 h, time 3 day): 13.1 g
ALP (72 h, time 3 day): 978.4 IU/L
ALT (72 h, time 3 day): 40.2 IU/L
AST (72 h, time 3 day): 57.2 IU/L
BUN (72 h, time 3 day): 14 mg/dL
CRE (72 h, time 3 day): 0.4 mg/dL
Ca (72 h, time 3 day): 10.9 mg/dL
Cl (72 h, time 3 day): 103.2 meq/L
DBIL (72 h, time 3 day): 0.08 mg/dL
GLC (72 h, time 3 day): 199.4 mg/dL
IP (72 h, time 3 day): 6.8 mg/dL
K (72 h, time 3 day): 3.4 meq/L
LDH (72 h, time 3 day): 217.4 IU/L
Na (72 h, time 3 day): 140.6 meq/L
PL (72 h, time 3 day): 150.4 mg/dL
RALB (72 h, time 3 day): 3.4 g/dL
TBIL (72 h, time 3 day): 0.1 mg/dL
TC (72 h, time 3 day): 79.2 mg/dL
TP (72 h, time 3 day): 5.6 g/dL
gamma-GTP (72 h, time 3 day): 1.2 IU/L
TERMINAL_BW ([…], time 7 day): 253.9 g
TERMINAL_BW ([…], time 14 day): 309.3 g
TERMINAL_BW ([…], time 28 day): 374.6 g
APTT ([…], time 7 day): 21.5 s
Bas ([…], time 7 day): 0%
Eos ([…], time 7 day): 0.6%
Fbg ([…], time 7 day): 224.6 mg/dL
Hb ([…], time 7 day): 13.1 g/dL
Ht ([…], time 7 day): 38.8%
Lym ([…], time 7 day): 79.8%
MCH ([…], time 7 day): 20.5 pg
MCV ([…], time 7 day): 60.5 fL
Mono ([…], time 7 day): 2.4%
Neu ([…], time 7 day): 15.8%
PT ([…], time 7 day): 11.9 s
Plat ([…], time 7 day): 130.9 x10_4/uL
RBC ([…], time 7 day): 641.2 x10_4/ul
Ret ([…], time 7 day): 4.1%
WBC ([…], time 7 day): 127.4 x10_2/uL
APTT ([…], time 14 day): 22.3 s
Bas ([…], time 14 day): 0%
Eos ([…], time 14 day): 0.4%
Fbg ([…], time 14 day): 209.2 mg/dL
Hb ([…], time 14 day): 14.2 g/dL
Ht ([…], time 14 day): 41.2%
Lym ([…], time 14 day): 82.2%
MCH ([…], time 14 day): 20.6 pg
MCV ([…], time 14 day): 59.8 fL
Mono ([…], time 14 day): 2.4%
Neu ([…], time 14 day): 13.6%
PT ([…], time 14 day): 12.2 s
Plat ([…], time 14 day): 128.7 x10_4/uL
RBC ([…], time 14 day): 689.4 x10_4/ul
Ret ([…], time 14 day): 4.7%
WBC ([…], time 14 day): 149.2 x10_2/uL
APTT ([…], time 28 day): 22.9 s
Bas ([…], time 28 day): 0%
Eos ([…], time 28 day): 1%
Fbg ([…], time 28 day): 225.4 mg/dL
Hb ([…], time 28 day): 15.2 g/dL
Ht ([…], time 28 day): 43.4%
Lym ([…], time 28 day): 87.2%
MCH ([…], time 28 day): 19.6 pg
MCV ([…], time 28 day): 56 fL
Mono ([…], time 28 day): 2.2%
Neu ([…], time 28 day): 8.8%
PT ([…], time 28 day): 12.2 s
Plat ([…], time 28 day): 106.2 x10_4/uL
RBC ([…], time 28 day): 776.2 x10_4/ul
Ret ([…], time 28 day): 2.1%
WBC ([…], time 28 day): 142.7 x10_2/uL
KIDNEY_L ([…], time 7 day): 1.2 g
KIDNEY_R ([…], time 7 day): 1.1 g
KIDNEY_TOTAL ([…], time 7 day): 2.3 g
KIDNEY_L ([…], time 14 day): 1.3 g
KIDNEY_R ([…], time 14 day): 1.3 g
KIDNEY_TOTAL ([…], time 14 day): 2.7 g
KIDNEY_L ([…], time 28 day): 1.4 g
KIDNEY_R ([…], time 28 day): 1.4 g
KIDNEY_TOTAL ([…], time 28 day): 2.8 g
LIVER ([…], time 7 day): 14.2 g
LIVER ([…], time 14 day): 17.8 g
LIVER ([…], time 28 day): 19.5 g
ALP ([…], time 7 day): 803.4 IU/L
ALT ([…], time 7 day): 41.6 IU/L
AST ([…], time 7 day): 64.8 IU/L
BUN ([…], time 7 day): 15.4 mg/dL
CRE ([…], time 7 day): 0.4 mg/dL
Ca ([…], time 7 day): 10.7 mg/dL
Cl ([…], time 7 day): 101.8 meq/L
DBIL ([…], time 7 day): 0.098 mg/dL
GLC ([…], time 7 day): 212.6 mg/dL
IP ([…], time 7 day): 7 mg/dL
K ([…], time 7 day): 3.9 meq/L
LDH ([…], time 7 day): 261.2 IU/L
Na ([…], time 7 day): 139.6 meq/L
PL ([…], time 7 day): 174.4 mg/dL
RALB ([…], time 7 day): 3.6 g/dL
TBIL ([…], time 7 day): 0.1 mg/dL
TC ([…], time 7 day): 91.2 mg/dL
TP ([…], time 7 day): 6.1 g/dL
gamma-GTP ([…], time 7 day): 1.4 IU/L
ALP ([…], time 14 day): 774.4 IU/L
ALT ([…], time 14 day): 38.6 IU/L
AST ([…], time 14 day): 62.8 IU/L
BUN ([…], time 14 day): 17.5 mg/dL
CRE ([…], time 14 day): 0.5 mg/dL
Ca ([…], time 14 day): 11 mg/dL
Cl ([…], time 14 day): 101 meq/L
DBIL ([…], time 14 day): 0.1 mg/dL
GLC ([…], time 14 day): 193.4 mg/dL
IP ([…], time 14 day): 7.2 mg/dL
K ([…], time 14 day): 3.9 meq/L
LDH ([…], time 14 day): 192 IU/L
Na ([…], time 14 day): 140.8 meq/L
PL ([…], time 14 day): 170.4 mg/dL
RALB ([…], time 14 day): 3.5 g/dL
TBIL ([…], time 14 day): 0.2 mg/dL
TC ([…], time 14 day): 89 mg/dL
TP ([…], time 14 day): 6.4 g/dL
gamma-GTP ([…], time 14 day): 0.6 IU/L
ALP ([…], time 28 day): 555 IU/L
ALT ([…], time 28 day): 39.8 IU/L
AST ([…], time 28 day): 55 IU/L
BUN ([…], time 28 day): 20.4 mg/dL
CRE ([…], time 28 day): 0.5 mg/dL
Ca ([…], time 28 day): 10.6 mg/dL
Cl ([…], time 28 day): 101.4 meq/L
DBIL ([…], time 28 day): 0.09 mg/dL
GLC ([…], time 28 day): 226 mg/dL
IP ([…], time 28 day): 6.4 mg/dL
K ([…], time 28 day): 3.6 meq/L
LDH ([…], time 28 day): 218.2 IU/L
Na ([…], time 28 day): 140.6 meq/L
PL ([…], time 28 day): 180.8 mg/dL
RALB ([…], time 28 day): 3.7 g/dL
TBIL ([…], time 28 day): 0.1 mg/dL
TC ([…], time 28 day): 93.8 mg/dL
TP ([…], time 28 day): 6.5 g/dL
gamma-GTP ([…], time 28 day): 1.2 IU/L
